Measurements: US12180226B2, “Spirotricycle RIPK1 inhibitors and methods of uses thereof” (Merck Sharp & Dohme LLC, priority 2021, dated 2024)
Structures can show the parent of a compound that is named as a salt.

Molecular target: RIPK1 (recombinant GST-RIPK1 kinase domain, residues 1-327) (Homo sapiens (Human), UniProt Q13546)
Test: RIPK1-ADP-Glo Enzymatic Assay
Type: biochemical
Conditions: ADP-Glo; 25 nM GST-RIPK1, 300 μM ATP; assay lower limit ~25 nM; read-out: RIPK1 V0 Ec50
Procedure, shortened: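 Enzyme from baculovirus-infected Sf21 cells, 25 nM final, was pre-incubated 30 min at ambient temperature with compound (ten-point, 1:3 dilution from 100000 nM, 1% DMSO), then reacted 150 min with 300 μM ATP and 3 μM dephosphorylated MBP. ADP was read by luminescence; EC50 from four-parameter fit.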

RIPK1 (recombinant GST-RIPK1 kinase domain, residues 1-327), sequence (Q13546 1-327): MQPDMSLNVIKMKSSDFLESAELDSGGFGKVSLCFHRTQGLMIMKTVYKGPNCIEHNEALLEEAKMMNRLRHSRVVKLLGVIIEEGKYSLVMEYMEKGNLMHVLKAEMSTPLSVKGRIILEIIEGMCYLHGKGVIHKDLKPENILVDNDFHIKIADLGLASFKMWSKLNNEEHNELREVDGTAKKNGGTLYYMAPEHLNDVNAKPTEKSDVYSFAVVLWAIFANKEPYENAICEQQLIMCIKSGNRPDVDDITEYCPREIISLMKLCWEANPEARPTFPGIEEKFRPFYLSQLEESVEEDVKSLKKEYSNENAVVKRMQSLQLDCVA

| Compound | EC50 |
| --- | --- |
| O=C(c1ccccc1F)N1CCC2(CC1)O[C@@H]1CC[C@@H](c3ccccc3F)N1C2=O [Example 1.16, (5′S,7a′R)-1-(2-fluorobenzoyl)-5′-(2-fluorophenyl)tetrahydro-3′H-spiro[piperidine-4,2′-pyrrolo[2,1-b]oxazol]-3′-one] | < 25 nM |
| COC(=O)c1cnc(N2CCC3(CC2)O[C@@H]2CC[C@@H](c4ccccc4)N2C3=O)c(OC)c1 [Example 4.197, methyl 5-methoxy-6-[(5′S,7a′R)-3′-oxo-5′-phenyltetrahydro-1H,3′H-spiro[piperidine-4,2′-pyrrolo[2,1-b] [1,3]oxazol]-1-yl]pyridine-3-carboxylate] | 25.1 nM |
| N#Cc1cc(N2CCC3(CC2)SC2CCC(c4cc(F)cc(F)c4)N2C3=O)ncn1 (stereo not shown) [Example 4.111, 6-(5′-(3,5-difluorophenyl)-3′-oxotetrahydro-3′H-spiro[piperidine-4,2′-pyrrolo[2,1-b]thiazol]-1-yl)pyrimidine-4-carbonitrile] | 38.1 nM |
| O=C1N2[C@@H](CC[C@H]2c2cc(F)cc(F)c2)OC12CCN(c1ncnc3c(F)cnn13)CC2 [Example 4.250, (5′S,7a′R)-5′-(3,5-difluorophenyl)-1-(8-fluoropyrazolo[1,5-a] [1,3,5]triazin-4-yl)tetrahydro-3′H-spiro[piperidine-4,2′-pyrrolo[2,1-b] [1,3]oxazol]-3′-one] | < 25 nM |
| N#Cc1ccc(N2CCC3(CC2)O[C@@H]2CC[C@@H](c4cc(F)cc(F)c4)N2C3=O)cc1-n1ccnn1 [Example 4.70, 4-[(5′S,7a′R)-5′-(3,5-difluorophenyl)-3′-oxotetrahydro-1H,3′H-spiro[piperidine-4,2′-pyrrolo[2,1-b] [1,3]oxazol]-1-yl]-2-(1H-1,2,3-triazol-1-yl)benzonitrile] | 54.3 nM |
| O=C1N2[C@@H](CC[C@H]2c2ccccc2)OC12CCN(c1nc3ccccc3o1)CC2 [Example 4.154, (5′S,7a′R)-1-(1,3-benzoxazol-2-yl)-5′-phenyltetrahydro-3′H-spiro[piperidine-4,2′-pyrrolo[2,1-b] [1,3]oxazol]-3′-one] | 35.7 nM |
| N#Cc1ccc(N2CCC3(CC2)O[C@@H]2CC[C@@H](c4cccc(F)c4)N2C3=O)c(F)c1 [Example 4.53, 3-fluoro-4-[(5′S,7a′R)-5′-(3-fluorophenyl)-3′-oxotetrahydro-1H,3′H-spiro[piperidine-4,2′-pyrrolo[2,1-b] [1,3]oxazol]-1-yl]benzonitrile] | < 25 nM |
| O=C(c1cc(Cl)ccc1F)N1CCC2(CC1)O[C@@H]1CC[C@@H](c3ccccc3F)N1C2=O [Example 1.14, (5′S,7a′R)-1-(5-chloro-2-fluorobenzoyl)-5′-(2-fluorophenyl)tetrahydro-3′H-spiro[piperidine-4,2′-pyrrolo[2,1-b]oxazol]-3′-one] | < 25 nM |
| CC1CN(c2cccc3ncnn23)CCC12O[C@@H]1CC[C@@H](c3ccccc3)N1C2=O (stereo partly drawn) [Example 4.244, (4R,5′S,7a′R)-3-methyl-5′-phenyl-1-([1,2,4]triazolo[1,5-a]pyridin-5-yl)tetrahydro-3′H-spiro[piperidine-4,2′-pyrrolo[2,1-b] [1,3]oxazol]-3′-one] | < 25 nM |
| O=C1N2[C@@H](CC[C@H]2c2cc(F)cc(F)c2)OC12CCN(c1ncc(C3CC3)cn1)CC2 [Example 4.56, (5′S,7a′R)-1-(5-cyclopropylpyrimidin-2-yl)-5′-(3,5-difluorophenyl)tetrahydro-3′H-spiro[piperidine-4,2′-pyrrolo[2,1-b] [1,3]oxazol]-3′-one] | 565 nM |
| O=C1N2[C@@H](CC[C@H]2c2ccccc2)OC12CCN(c1ncnc3c(I)cnn13)CC2 [Example 4.219, (5′S,7a′R)-1-(8-iodopyrazolo[1,5-a] [1,3,5]triazin-4-yl)-5′-phenyltetrahydro-3′H-spiro[piperidine-4,2′-pyrrolo[2,1-b] [1,3]oxazol]-3′-one] | < 25 nM |
| O=C(c1ccccc1)N1CCC2(CC1)O[C@@H]1CC[C@@H](c3ccccc3F)N1C2=O [Example 1.13, (5′S,7a′R)-1-benzoyl-5′-(2-fluorophenyl)tetrahydro-3′H-spiro[piperidine-4,2′-pyrrolo[2,1-b]oxazol]-3′-one] | < 25 nM |
| O=C1N2[C@@H](CC[C@H]2c2ccccc2)OC12CCN(c1ncnc3ccnn13)CC2F (single isomer, unassigned) [Example 4.97, (3[R or S],4[S or R], 5′S,7a′R)-3-fluoro-5′-phenyl-1-(pyrazolo [1,5-a][1,3,5]triazin-4-yl)tetrahydro-3′H-spiro[piperidine-4,2′-pyrrolo[2,1-b]oxazol]-3′-one] | < 25 nM |
| O=C1N2[C@@H](CC[C@H]2c2ccccc2)OC12CCN(c1ccc(-c3nnc(C(F)(F)F)o3)cn1)CC2 [Example 4.165, (5′S,7a′R)-5′-phenyl-1-{5-[5-(trifluoromethyl)-1,3,4-oxadiazol-2-yl]pyridin-2-yl}tetrahydro-3′H-spiro[piperidine-4,2′-pyrrolo[2,1-b] [1,3]oxazol]-3′-one] | 144 nM |
| O=C1N2[C@@H](CC[C@H]2c2cccc(F)c2)OC12CCN(c1cc(F)ccn1)CC2 [Example 4.126, (5′S,7a′R)-5′-(3-fluorophenyl)-1-(4-fluoropyridin-2-yl)tetrahydro-3′H-spiro[piperidine-4,2′-pyrrolo[2,1-b] [1,3]oxazol]-3′-one] | 46.7 nM |
| O=C1N2[C@@H](CC[C@H]2c2ccccc2)OC12CCN(c1cccn3nccc13)CC2 [Example 4.150, (5′S,7a′R)-5′-phenyl-1-(pyrazolo[1,5-a]pyridin-4-yl)tetrahydro-3′H-spiro[piperidine-4,2′-pyrrolo[2,1-b] [1,3]oxazol]-3′-one] | 34.4 nM |

Continued, values first:

| EC50 | Compound |
| --- | --- |
| 451 nM | O=C(c1nnc(-c2ccccn2)s1)N1CCC2(CC1)O[C@@H]1CC[C@@H](c3cc(F)cc(F)c3)N1C2=O [Example 6.45, (5′S,7a′R)-5′-(3,5-difluorophenyl)-1-[5-(pyridin-2-yl)-1,3,4-thiadiazole-2-carbon-yl]tetrahydro-3′H-spiro[piperidine-4,2′-pyrrolo[2,1-b][1,3]oxazol]-3′-one] |
| 31.4 nM | COc1cc(-n2ccc(N3CCC4(CC3)O[C@@H]3CC[C@@H](c5ccccc5)N3C4=O)n2)ccn1 [Example 11.6, (5′S,7a′R)-1-[1-(2-methoxypyridin-4-yl)-1H-pyrazol-3-yl]-5′-phenyltetrahydro-3′H-spiro[piperidine-4,2′-pyrrolo[2,1-b][1,3]oxazol]-3′-one] |
| < 25 nM | COc1ccc(F)c(C(=O)N2CCC3(CC2)O[C@@H]2CC[C@@H](c4ccccc4)N2C3=O)c1 [Example 6.149, (5′S,7a′R)-1-(2-fluoro-5-methoxybenzene-1-carbonyl)-5′-phenyl-tetrahydro-3′H-spiro [piperidine-4,2′-pyrrolo[2,1-b][1,3]oxazol]-3′-one] |
| 355 nM | O=C1N2C(=NC13CCN(c1cc(-c4cnn(C(F)F)c4)ncn1)CC3)CC[C@H]2c1cc(F)cc(F)c1 [Example 10.3, (S)-1-(6-(1-(difluoromethyl)-1H-pyrazol-4-yl)pyrimidin-4-yl)-5′-(3,5-difluorophenyl)-6′,7′-dihydro-3′H,5′H-spiro[piperidine-4,2′-pyrrolo[1,2-a]imidazol]-3′-one] |
| < 25 nM | C#Cc1cccc(C(=O)N2CCC3(CC2)O[C@@H]2CC[C@@H](c4cccc(F)c4)N2C3=O)c1 [Example 6.123, (5′S,7a′R)-1-(3-ethynylbenzene-1-carbonyl)-5′-(3-fluoro-phenyl)tetrahydro-3′H-spiro[piperidine-4,2′-pyrrolo[2,1-b][1,3]oxazol]-3-one] |
| < 25 nM | O=C(c1cc(F)c(F)cc1F)N1CCC2(CC1)O[C@@H]1CC[C@@H](c3ccccc3)N1C2=O [Example 5.10, (5′S,7a′R)-5′-phenyl-1-(2,4,5-trifluorobenzene-1-carbonyl)tetrahydro-3′H-spiro[piperidine-4,2′-pyrrolo[2,1-b][1,3]oxazol]-3′-one] |
| 366 nM | O=C1N2[C@@H](CC[C@H]2c2cc(F)cc(F)c2)OC12CCN(c1ncc(F)c3nncn13)CC2 [Example 13.13, (5′S,7a′R)-5′-(3,5-difluorophenyl)-1-(8-fluoro-[1,2,4]triazolo[4,3-c]pyrimidin-5-yl)tetrahydro-3′H-spiro[piperidine-4,2′-pyrrolo[2,1-b]oxazol]-3′-one, TFA salt] |
| 45.1 nM | O=C(c1ncccc1F)N1CCC2(CC1)O[C@@H]1CC[C@@H](c3cc(F)cc(F)c3)N1C2=O [Example 6.54, (5′S,7a'R)-5′-(3,5-difluorophenyl)-1-(3-fluoropyridine-2-carbonyl)tetrahydro-3′H-spiro[piperidine-4,2′-pyrrolo[2,1-b] [1,3]oxazol]-3-one] |
| 39.2 nM | C#Cc1cc(C(=O)N2CCC3(CC2)O[C@@H]2CC[C@@H](c4cc(F)cc(F)c4)N2C3=O)ccn1 [Example 5.42, (5′S,7a′R)-5′-(3,5-difluoro-phenyl)-1-(2-ethynylpyri-dine-4-carbonyl)tetra-hydro-3′H-spiro[piperi-dine-4,2′-pyrrolo-[2,1-b] [1,3]oxazol]-3′-one] |
| 64.8 nM | CCc1cc(C(=O)N2CCC3(CC2)O[C@@H]2CC[C@@H](c4cc(F)cc(F)c4)N2C3=O)no1 [Example 6.62, (5′S,7a′R)-5′-(3,5-difluorophenyl)-1-(5-ethyl-1,2-oxazole-3-carbonyl)tetrahydro-3′H-spiro[piperidine-4,2′-pyrrolo[2,1-b] [1,3]oxazol]-3′-one] |
| 49 nM | COc1ccc([C@@H]2CC[C@H]3OC4(CCN(C(=O)c5ccccc5)CC4)C(=O)N32)cc1 [Example 17.8, (5′S,7a′R)-1-benzoyl-5′-(4-methoxyphenyl)tetrahydro-3′H-spiro[piperidine-4,2′-pyrrolo[2,1-b]oxazol]-3′-one] |
| < 25 nM | O=C1N2C(CCC2c2c(F)cccc2F)OC12CCN(c1ccnc3ccnn13)CC2 (stereo not shown) [Example 20.8, 5′-(2,6-difluorophenyl)-1-(pyrazolo[1,5-a]pyrimidin-7-yl)tetrahydro-3′H-spiro[piperidine-4,2′-pyrrolo[2,1-b][1,3]oxazol]-3′-one] |
